Measured values from patent US20100029674A1, “Methods of Using Phosphoantigen for the Treatment of Cancer” (INNATE PHARMA, S.A., priority 2007, published 2010).
Counter-ions that a name gives are not always drawn. Where a SMILES comes first, the peptide text is derived from it.

How the values were obtained:
[1] = system: histone deacetylase (HDAC); conditions: cited from earlier work
[2] = system: γδ T cells; experiment: BrHPP-induced amplification of γδ T cells in monkeys treated with imatinib mesylate; assay type: in vivo; conditions: BrHPP iv plus IL-2 with oral daily imatinib mesylate 15 mg/kg versus BrHPP alone; days 6 and 20
[3] = system: γδ T cells; experiment: In vitro BrHPP sensitivity test: 8 day culture of peripheral lymphocytes from CML patients undergoing Gleevec therapy, flow cytometry; assay type: cell-based, human
Experimental: The study intends to test the sensitivity of γ962 T cells from oncology patients to BrHPP. It aims at identifying cancers and or situations in which a BrHPP treatment would be relevant and those for which it would be less or not beneficial. In brief, a small sample of blood is sufficient to prepare PBMCs and culture in the presence of BrHPP. A result of the level of in vitro amplification of gamma-delta cells by BrHPP can be obtained in about 8 days.
Upon reception of blood, 20 ml blood samples were treated by Ficoll gradient to isolate peripheral lymphocytes, which were then frozen. The lymphocytes were cultured in a 96-well plate (1 million cells/ml) for 8 days in the presence of BrHPP. The percentage of γ962 T cells were then determined by a phenotypic assay (flow cytometry).
In such small scale culture assay, a patient is considered to be responsive to an agonist following 8 days of in vitro stimulation according to two criteria: the percentage of γ962 T cells in culture as well as the rate of amplification of these cells. The amplification rate corresponds to the ratio of number of total γ962 T cells at the end of culture to the total γ962 T cells at the start of culture. The qualitative evaluation of these two criteria was divided into four levels of response, according to the Table 2.
A patient is considered sensitive to BrHPP if the sum of the values of the two criteria is ++ or +++. A classification of 0 or + is considered non-sensitive.

[4] = system: human γ9δ2 T cells; experiment: Combination of BrHPP and tyrosine kinase inhibitors on amplification of Vd2/Vg9 T cells in NOD SCID mice; assay type: in vivo; conditions: BrHPP 50 mg/kg i.p. day 0, IL-2 day 0 to 4, TKI from day 0 for 3 to 5 days; peritoneal lavage day 8
Experimental: Cell line: human PBMC whose γ9δ2 T cells percentage is higher than 0.5% and which has been previously tested for the “sensitivity test”. They were thawed one hour before injection and maintained for one hour in complete medium (RPMI 1640 supplemented with 2 mM L-glutamine, 1 mM Sodium Pyruvate (all from Gibco-BRL, Life Science, Invitrogen) and 10% heat inactivated Fetal Calf Serum (Fetal clone)) in incubator at 37° C.
• FITC anti human V82,Immunotech, ref 1464 • PerCpCy5.5 anti human CD3, Pharmingen, ref 552552 • APC anti human Vγ9 • APC Cy7 anti human CD45, Pharmingen, ref 348815 • PE anti human CD56, Pharmingen, ref 556647
Mice used included (a) NOD SCID female mice aged 8-10 weeks from Charles River Laboratories. Mice were fed and housed under sterilized conditions in Innate-Pharma's animal facility, and (b)NOD SCID female mice aged 10-12 weeks bred at Innate Pharma.
Each group contained 5 mice. Following transfer of human PBMC cells described above, the 4 groups received BrHPP (50 mg/kg, i.p.) on day 0 and IL-2 (2 M/m^2, s.c.) every day from day 0 to day 4. […] On day 8 mice were sacrificed, cells were collected by peritoneal lavage, and γ9δ2 T cell proliferation was assessed by flow cytometry.

[5] = system: Vγ9Vδ2 T cells; experiment: Phase I escalating dose clinical trial: amplification of Vγ9Vδ2 T cells by flow cytometry in chemotherapy-treated patients; assay type: in vivo, human; conditions: after second administration (with IL-2)
Experimental: Blood samples (4 ml) were withdrawn into EDTA containing tubes. Tubes were shipped overnight at room temperature (RT) before flow cytometry analyses.
Peripheral lymphocytes were analyzed by flow cytometry on total blood, after triple staining with anti-Vdelta2FITC, anti-CD3PE and anti-CD25PC5 antibodies (Vdelta2-FITC : IMMU389 clone, Immunotech-Beckman-Coulter, Marseilles, France; CD3-PE : UCHTI clone, Immunotech-Beckman-Coulter; CD25PC5 : M-A251 clone, Becton Dickinson, Le Pont de Claix, France).
Briefly, 100 μl patient blood was incubated 15 min at RT with 10 μl anti-Vdelta2-FITC, 10 μl anti-CD3-PE and 10 μl anti-CD25PC5 antibodies. Antibodies were washed with 3 ml 1× PBS, centrifuged for 4 min at 1300 rpm at RT and supernatant was discarded. Red cells were lysed with the OptiLyse B reagent (Immunotech-Beckman-Coulter, Marseilles, France) according to the manufacturer's instructions. At the final step, stained white blood cells were recovered by centrifugation and resuspended in 300 μl 1× PBS+0.2% PFA. Flow cytometry analysis on viable cells was performed on a FacsSCAN apparatus (Becton Dickinson) with the FacsDiva software.
(§1) PHOSPHOST™ (Bromohydrin pyrophosphate, BrHPP) was evaluated in an escalating dose clinical trial in patients with advanced/metastatic solid tumors. The therapeutic regimen and pharmaco-toxicology of BrHPP in combination with low dose of IL-2 have previously been characterized in non human primates. The patients received at least 3 injections of BrHPP 3 weeks apart, concomitant with low dose of IL-2 (1 million IU/m^2/day). Pharmacological response was monitored all along the treatment. Based on the results of the phase I trial, a multicenter phase II study on metastatic RCC patients has been scheduled. The clinical drug product was a 200 mg/vial of lyophilized Phosphostim (expressed in mg equivalent of BrHPP anionic form.). The formulation of Phosphostim was reconstituted immediately prior to use with 2 ml of water for injections to make a 100 mg/ml solution. The reconstituted product was diluted in a total volume of 100 ml of ringer lactate buffer infusion vehicle. Phosphostim was administered intravenously over 1 hour.
All patient cohorts received repeated 3-week cycles of Phosphostim alone for the first cycle and Phosphostim in combination with IL-2 for the subsequent cycles. • first cycle: Phosphostim alone, • subsequent cycles: Phosphostim in combination with IL-2
Patients were sequentially allotted to cohorts of progressively higher dose levels of Phosphostim. […] The objective tumor response was assessed after 3 cycles (i.e., every 9 weeks). […]
Drug plasma levels were measured during the first and the second cycles in all patients. […] Biological effect was monitored throughout the trial and studied on PBMC and plasma. […]

[6] = system: γ9δ2 T cells; experiment: Dose range activation of γδ T cells following iv injection of BrHPP (GLP pharmacology studies); assay type: in vivo, non-human primates
[7] = system: advanced/metastatic solid tumors; experiment: Phase I clinical trial: progression free survival; assay type: in vivo, human
Experimental: as §1
The clinical trial was therefore a phase I, single arm, open-label, national, multi-center, dose-escalation trial in sequential cohorts of patients with advanced/metastatic solid tumors.
Patients were sequentially allotted to cohorts of progressively higher dose levels of Phosphostim. […] The objective tumor response was assessed after 3 cycles (i.e., every 9 weeks).

[8] = system: advanced drug refractory ovarian cancer; conditions: in vivo; cited from earlier work
[9] = system: various lung cancers; conditions: in vivo; cited from earlier work
[10] = system: previously treated metastatic breast cancer; conditions: in vivo; cited from earlier work
[11] = phosphostim plus IL-2, iv injection

Molecule: O=C(CCCCC[C@@H]1NC(=O)[C@H]2CCCCN2C(=O)[C@H](Cc2ccccc2)NC(=O)[C@H](Cc2ccccc2)NC1=O)C1CO1 (some centres unmarked) [trapoxin (TPX), trapoxin] (HELM PEPTIDE1{F.F.[O=C([C@H]1CCCCN1[*:1])[*:2]].[O=C(CCCCC[C@H](N[*:1])C(=O)[*:2])C1CO1]}$PEPTIDE1,PEPTIDE1,1:R1-4:R2$$$V2.0)
- concentration at which HDAC is inhibited [1]: nanomolar concentrations

Molecule: Cc1ccc(NC(=O)c2ccc(CN3CCN(C)CC3)cc2)cc1Nc1nccc(-c2cccnc2)n1 [Gleevec, imatinib mesylate, reference compound]
- effect on γδ T cell proliferation (percentage of γ9δ2 T cells among total cells) [2]: does not significantly impair
- sensitivity of T cells from Gleevec-treated CML patients to γ9δ2 T cell agonists such as BrHPP ([3]; 8 days culture with BrHPP): remain sensitive

Molecule: CNC(=O)c1cc(Oc2ccc(NC(=O)Nc3ccc(Cl)c(C(F)(F)F)c3)cc2)ccn1 [Sorafenib, sorafenib]
- effect on γδ T cell proliferation (percentage of γ9δ2 T cells among total cells) [4]: does not impair

Molecule: 3-(bromomethyl)-3-butanol-1-yl-diphosphate [BrHPP]
- amplification rate of Vγ9Vδ2 T cells ([5]; Patient 1 (0035), colon cancer, 1500 mg/m2, within six months of Cetuximab/Irinotecan therapy): 11 ×
- amplification rate of Vγ9Vδ2 T cells ([5]; Patient 2 (0039), colon cancer, 1500, Erbitux/Irinotecan ending within three months before): 6.4 ×
- amplification rate of Vγ9Vδ2 T cells ([5]; Patient 3 (0018), metastatic renal cell carcinoma, 1800 mg/m^2, prior BAY 43-9006 and Avastin ending within a month before): 6.2 ×
- amplification rate of Vγ9Vδ2 T cells ([5]; Patient 4 (0017), colon cancer, 1200 mg/m^2, Oxaliplatin/5FU/Elvorine/Vinflumine ending within three months before): 4.3 ×
- γ9δ2 T cell levels return to basal level ([6]; in most animals (except some treated with a high dose)): 14 days
- EC50 in vivo [6, 11]: about 60 mg/kg
- dose at which a plateau seems to be reached [6, 11]: 97 mg/kg
- dose from which the effect is detected [6, 11]: ≥ 2.4 mg/kg
- non-sensitive patients ([3]; of 19 CML patients undergoing imitanib mesylate treatment): One
- patients with values of either ++ or +++ (responsive to BrHPP induced amplification) ([3]; of 19 CML patients undergoing imitanib mesylate treatment, sum of the two criteria of Table 2): 18 patients
- PFS (progression free survival) ([7]; Patient 3 (0018), metastatic renal cell carcinoma, two cycles, 1800 mg/m^2): 72 weeks
- PFS ([7]; Patient 4 (0017), colon cancer, three cycles, 1200 mg/m^2): 39 weeks

Molecule: CC(=O)O[C@H]1C(=O)[C@@]2(C)[C@H]([C@H](OC(=O)c3ccccc3)[C@]3(O)C[C@H](OC(=O)[C@H](O)[C@@H](NC(=O)c4ccccc4)c4ccccc4)C(C)=C1C3(C)C)[C@]1(OC(C)=O)CO[C@@H]1C[C@@H]2O [taxol, Paclitaxel]
- response rate [8]: 19-36%
- response rate [9]: 21-37%
- response rate [10]: 27-62%

Molecule: CC(/C=C/C(=O)NO)=C\[C@@H](C)C(=O)c1ccc(N(C)C)cc1 [trichostatin A]
- concentration at which HDAC is inhibited [1]: nanomolar concentrations
